{"source": "the RepoRT retention time repository (doi:10.1016/j.jhazmat.2019.121712)", "data": [{"assay": "Thermo Scientific Acclaim RSLC 120 C18, 100 × 2.1 mm, 2.2 µm, 30 °C; A: 90% water + 10% methanol + 0.01% formic acid + 5 mM ammonium formate; B: methanol + 0.01% formic acid + 5 mM ammonium formate; gradient (min/%B) 0.1/1 3/39 14/99.9 16/99.9", "details": "stereoisomer not certain", "units": {"LC retention time": "min"}, "values": [{"smiles": "CN(C)CCN1C(=O)c2ccccc2N(C)c2ccccc21", "LC retention time": 5.49}, {"smiles": "CC(=O)Nc1ccc(S(=O)(=O)Nc2cc(C)on2)cc1", "LC retention time": 5.28}, {"smiles": "Cc1cn(C2CC(N=[N+]=[N-])C(CO)O2)c(=O)[nH]c1=O", "note": "(configuration not stated)", "LC retention time": 4.56}, {"smiles": "CCCCSP(=O)(SCCCC)SCCCC", "LC retention time": 13.4}, {"smiles": "NS(=O)(=O)Cc1noc2ccccc12", "LC retention time": 4.53}, {"smiles": "CN(C)C(=S)SSC(=S)N(C)C", "LC retention time": 6.8}, {"smiles": "C=CCC1(C(C)C#CCC)C(=O)NC(=O)N(C)C1=O", "note": "(configuration not stated)", "LC retention time": 9.09}, {"smiles": "Cc1cc(C)c(C2=C(OC(=O)CC(C)(C)C)C3(CCCC3)OC2=O)c(C)c1", "LC retention time": 12.8}, {"smiles": "CC(CC(C#N)(c1ccccc1)C(C)C)N(C)C", "note": "(configuration not stated)", "LC retention time": 5.96}, {"smiles": "CC(C(=O)O)c1cccc(C(=O)c2ccccc2)c1", "note": "(configuration not stated)", "LC retention time": 8.53}, {"smiles": "COc1ccc(CCN)cc1OC", "LC retention time": 3.53}, {"smiles": "CCC(CO)NCCNC(CC)CO", "note": "(configuration not stated)", "LC retention time": 1.93}, {"smiles": "CCCCN(CCCC)SN(C)C(=O)Oc1cccc2c1OC(C)(C)C2", "LC retention time": 13.8}, {"smiles": "CCOc1ccc2c(c1)C(C)=CC(C)(C)N2", "LC retention time": 10.1}, {"smiles": "CNC(=O)C(C)SCCSP(=O)(OC)OC", "note": "(configuration not stated)", "LC retention time": 5.02}, {"smiles": "CC(C)NCC(O)COc1ccc(CCOCC2CC2)cc1", "note": "(configuration not stated)", "LC retention time": 6.68}, {"smiles": "Cn1cc[nH]c1=S", "LC retention time": 2.61}, {"smiles": "CNC(=O)Oc1cc(C)c(S(C)(=O)=O)c(C)c1", "LC retention time": 5.28}, {"smiles": "CCCCCCn1cc(C(=O)c2cccc3ccccc23)c2ccccc21", "LC retention time": 12.9}, {"smiles": "CC(N)C(O)c1ccccc1", "note": "(configuration not stated)", "LC retention time": 3.68}, {"smiles": "CCCCCCCCCCCCOCCOCCOCCOCCO", "LC retention time": 13.5}, {"smiles": "COC(=O)c1ccccc1C(=O)c1ccc(OCCN2CCCCC2)cc1", "LC retention time": 5.44}, {"smiles": "CCC(C)N(C(=O)SCc1ccccc1)C(C)CC", "note": "(configuration not stated)", "LC retention time": 12.8}, {"smiles": "CC(C)N(C(=O)C(=O)O)c1ccccc1", "LC retention time": 5.13}, {"smiles": "CC12CCC3c4ccc(O)cc4CCC3C1CC(O)C2O", "note": "(configuration not stated)", "LC retention time": 6.83}, {"smiles": "CC(C)c1ccc(NC(N)=O)cc1", "LC retention time": 7.76}, {"smiles": "C=CCc1ccccc1OCC(O)CNC(C)C", "note": "(configuration not stated)", "LC retention time": 6.71}, {"smiles": "CCOP(=O)(OCC)SCSCC", "LC retention time": 8.6}, {"smiles": "COc1ccc(C(=O)c2cn(CCCCCO)c3ccccc23)cc1", "LC retention time": 9.18}, {"smiles": "CCOP(=S)(OCC)SCCS(=O)CC", "note": "(configuration not stated)", "LC retention time": 7.86}, {"smiles": "c1ccc2scnc2c1", "LC retention time": 6.88}, {"smiles": "CCOP(=O)(OCC)OCC", "LC retention time": 6.16}, {"smiles": "CC(CN(C)C)CN1c2ccccc2S(=O)(=O)c2ccccc21", "note": "(configuration not stated)", "LC retention time": 5.34}, {"smiles": "Cc1ccc(N)c(C)c1", "LC retention time": 5.04}, {"smiles": "CNC(=O)ON=C(C)C(C)S(C)=O", "note": "(configuration not stated)", "LC retention time": 3.35}, {"smiles": "Cn1c(=O)c2c(ncn2CC(O)CO)n(C)c1=O", "note": "(configuration not stated)", "LC retention time": 3.76}, {"smiles": "CNC(=O)ON=C(CSC)C(C)(C)C", "LC retention time": 7.8}, {"smiles": "CCC(C)C1OC2(CCC1C)CC1CC(CC=C(C)C(OC3CC(OC)C(OC4CC(OC)C(O)C(C)O4)C(C)O3)C(C)C=CC=C3COC4C(O)C(C)=CC(C(=O)O1)C34O)O2", "note": "(configuration not stated)", "LC retention time": 14.4}, {"smiles": "COc1ccc2c(c1)C13CCCCC1C(C2)N(C)CC3", "note": "(configuration not stated)", "LC retention time": 6.51}, {"smiles": "O=C(OC1CN2CCC1CC2)N1CCc2ccccc2C1c1ccccc1", "note": "(configuration not stated)", "LC retention time": 7.95}, {"smiles": "CCCc1nn(C)c2c(=O)[nH]c(-c3cc(S(=O)(=O)N4CCN(Cc5ccccc5)CC4)ccc3OCC)nc12", "LC retention time": 11.5}, {"smiles": "CC(=O)N(C)N(C(=O)C(=O)N(C)C)c1ccccc1", "LC retention time": 5.06}, {"smiles": "Cc1ccc(C(=O)C(C)N2CCCC2)cc1", "note": "(configuration not stated)", "LC retention time": 4.76}, {"smiles": "CCNC(C)C(O)c1ccc(O)c(O)c1", "note": "(configuration not stated)", "LC retention time": 1.99}, {"smiles": "OC(CCN1CCCCC1)(c1ccccc1)C1CC2C=CC1C2", "note": "(configuration not stated)", "LC retention time": 7.63}, {"smiles": "Cc1nn(C)c(Oc2ccccc2)c1C=NOCc1ccc(C(=O)OC(C)(C)C)cc1", "LC retention time": 13.2}, {"smiles": "CC(=O)Oc1cc(C(C)C)c(OCCN(C)C)cc1C", "LC retention time": 6.21}, {"smiles": "Cc1c(N(C)CS(=O)(=O)O)c(=O)n(-c2ccccc2)n1C", "LC retention time": 4.49}, {"smiles": "CC(Cc1ccc(C(C)(C)C)cc1)CN1CC(C)OC(C)C1", "note": "(configuration not stated)", "LC retention time": 10.7}, {"smiles": "NNC(=O)c1ccncc1", "LC retention time": 2.18}, {"smiles": "CNC(=O)C=C(C)OP(=O)(OC)OC", "LC retention time": 4.36}, {"smiles": "COc1ccccc1OCCNCC(O)COc1cccc2[nH]c3ccccc3c12", "note": "(configuration not stated)", "LC retention time": 6.91}, {"smiles": "Nc1nc(N)nc(N)n1", "LC retention time": 1.45}, {"smiles": "CCCc1nn(C)c2c(=S)nc(-c3cc(C(=S)N4CCN(C)CC4)ccc3OCC)[nH]c12", "LC retention time": 11.5}, {"smiles": "NCC1CCC(C(=O)O)CC1", "note": "(configuration not stated)", "LC retention time": 1.79}, {"smiles": "Nc1ccc(S(=O)(=O)c2ccc(N)cc2)cc1", "LC retention time": 4.13}, {"smiles": "CN1CCCCC1CCN1c2ccccc2Sc2ccc(S(C)=O)cc21", "note": "(configuration not stated)", "LC retention time": 6.74}, {"smiles": "Cc1c(N)c(=O)n(-c2ccccc2)n1C", "LC retention time": 4.69}, {"smiles": "CC(=O)CC(c1ccccc1)c1c(O)c2ccccc2oc1=O", "note": "(configuration not stated)", "LC retention time": 9.08}, {"smiles": "OCc1cc(C(O)CNCCCCCCOCCCCc2ccccc2)ccc1O", "note": "(configuration not stated)", "LC retention time": 8.83}, {"smiles": "CCCNC(C)Cc1ccccc1", "note": "(configuration not stated)", "LC retention time": 4.83}, {"smiles": "c1cncc(C2CCCCN2)c1", "note": "(configuration not stated)", "LC retention time": 2.94}, {"smiles": "CON=C(C(=O)OC)c1ccccc1COc1ccccc1C", "LC retention time": 10.8}, {"smiles": "CC(=O)SC1CC2=CC(=O)CCC2(C)C2CCC3(C)C(CCC34CCC(=O)O4)C12", "note": "(configuration not stated)", "LC retention time": 9.24}, {"smiles": "CCC(=O)C1(c2cccc(O)c2)CCN(C)CC1", "LC retention time": 4.26}, {"smiles": "O=C1OC(c2ccc(O)cc2)(c2ccc(O)cc2)c2ccccc21", "LC retention time": 7.06}, {"smiles": "CCOC(=O)C1CC(=O)C(=C(O)C2CC2)C(=O)C1", "note": "(configuration not stated)", "LC retention time": 8.45}, {"smiles": "CN(C)CCCN1c2ccccc2Sc2ccccc21", "LC retention time": 7.69}, {"smiles": "O=C(C1CCCCC1)N1CC(=O)N2CCc3ccccc3C2C1", "note": "(configuration not stated)", "LC retention time": 9.32}, {"smiles": "CCCC(=O)Nc1ccc(OCC(O)CNC(C)C)c(C(C)=O)c1", "note": "(configuration not stated)", "LC retention time": 4.78}, {"smiles": "NC12CC3CC(CC(C3)C1)C2", "LC retention time": 4.86}, {"smiles": "CC12CCC(=O)C=C1CCC1C2C(O)CC2(C)C(C(=O)CO)CCC12", "note": "(configuration not stated)", "LC retention time": 8.74}, {"smiles": "CC[N+]1(C)C2CC(OC(=O)C(CO)c3ccccc3)CC1C1OC12", "note": "(configuration not stated)", "LC retention time": 3.87}, {"smiles": "CCOC(=O)C(CCc1ccccc1)NC1CCCN2CCCC(C(=O)O)N2C1=O", "note": "(configuration not stated)", "LC retention time": 7.94}, {"smiles": "CC(C)CN(CC(O)C(Cc1ccccc1)NC(=O)OC1COC2OCCC12)S(=O)(=O)c1ccc(N)cc1", "note": "(configuration not stated)", "LC retention time": 8.21}, {"smiles": "CN(C)C(CCOc1cccc2ccccc12)c1ccccc1", "note": "(configuration not stated)", "LC retention time": 8.34}, {"smiles": "COc1ccc(N)cc1N", "LC retention time": 2.37}, {"smiles": "CCOC(=O)C1=CC(OC(CC)CC)C(NC(C)=O)C(N)C1", "note": "(configuration not stated)", "LC retention time": 6.76}, {"smiles": "CCSCCSP(=S)(OC)OC", "LC retention time": 10.2}, {"smiles": "CN(C)CCC(c1ccccc1)c1ccccn1", "note": "(configuration not stated)", "LC retention time": 4.98}, {"smiles": "CC1(OC(=O)C=Cc2ccccc2)CC(O)C2(O)C=COC(OC3OC(CO)C(O)C(O)C3O)C12", "note": "(configuration not stated)", "LC retention time": 8.25}, {"smiles": "COC1CC(OC2C(C)OC(OC3C(C)=CCC4CC(CC5(CCC(C)C(C(C)C)O5)O4)OC(=O)C4C=C(C)C(O)C5OCC(=CC=CC3C)C45O)CC2OC)OC(C)C1O", "note": "(configuration not stated)", "LC retention time": 14.2}, {"smiles": "c1ccc2c(c1)Sc1ccccc1N2CC1CN2CCC1CC2", "note": "(configuration not stated)", "LC retention time": 8.29}, {"smiles": "CCC(C(N)=O)N1CCCC1=O", "note": "(configuration not stated)", "LC retention time": 3.74}, {"smiles": "CCCCCc1cc(O)c2c(c1)OC(C)(C)C1CCC(CO)=CC21", "note": "(configuration not stated)", "LC retention time": 12.5}, {"smiles": "CN(C)C1CSSSC1", "LC retention time": 3.16}, {"smiles": "NCCc1ccc(O)cc1", "LC retention time": 2.28}]}]}
